Experimental data reported in PMC5764481, “Synthesis, characterization and in vitro antitrypanosomal activities of new carboxamides bearing quinoline moiety” (PLoS ONE, 2018).
“And” between values parts separate entries of the source, which are not always exact repeats. Identical values can stand only once.

test system: T. b. gambiense strain; assay: In vitro antitrypanosomal activities (LILIT, Alamar Blue); assay type: cell-based, Trypanosoma brucei gambiense; details: Trypanosoma brucei, GAMBIENSE, 72 h
Experimental: In vitro antitrypanosomal activities against T. b. gambiense strain was described by Otoguro et al. In brief, T. b. gambiense strain was cultured in IMDM with various supplements and 10% heat-inactivated FBS at 37°C, under 5.0% CO2/95% air according to the method of Baltz et al. Ninety five […] of the trypanosomes suspension (2.0–2.5104 trypanosomes/mL for strain GUTat 3.1) was seeded in a 96-well microplate, and […] of a test compound solution (dissolved in 5.0% dimethylsulfoxide) was added followed by incubation for 72 h (long incubation-low inoculation test: LILIT). Ten […] of the fluorescent dye Alamar Blue was added to each well. After incubation for 3–6 h, the resulting solution was read at 528/20 nm excitation wavelength and 590/35 nm emission wavelength by a FLx800 fluorescent plate reader (Bio-Tek Instrument, Inc. Vermont, USA). Data were transferred into a spreadsheet program (Excel). The IC50 values were determined using fluorescent plate reader software (KC-4, Bio-Tek). Successive subcultures were done in 24-well tissue culture plates under the same conditions.

In the case of `Nc1nc(N)nc(Nc2ccc([As]3SCC(CO)S3)cc2)n1` (stereo not shown) [melarsoprol], the IC50 is reported as 0.005 µM.

same assay, conditions: Trypanosoma brucei; T. b. gambiense strain GUTat 3.1, 72 h incubation, Alamar Blue fluorescence; read-out: IC50

`O=C(Nc1cnc2ccccc2c1)C(Cc1cc2ccccc2[nH]1)N(C(=O)c1ccccc1)S(=O)(=O)c1ccccc1` (stereo not shown) [Compound 11k, 2-[N-(benzenesulfonyl)-1-phenylformamido]-3-(1H-indol-2-yl)-N-(quinolin-3-yl)propanamide] and `Cc1ccc(S(=O)(=O)N(C(=O)c2ccccc2)C(Cc2cc3ccccc3[nH]2)C(=O)Nc2cnc3ccccc3c2)cc1` (stereo not shown) [Compound 11c, 3-(1H-indol-2-yl)-2-[N-(4-methylbenzenesulfonyl)-1-phenylformamido]-N-(quinolin-3-yl)propanamide] are within 1.5-fold of each other in IC50: 0.109 ± 8e-05 µM for the first, 0.106 ± 3e-05 µM for the second.

same assay, conditions: read-out: IC50

Compared with “3-Methyl-2-[N-(4-nitrobenzenesulfonyl)-1-phenylformamido]-N-(quinolin-3-yl)pentanamide [Compound 11u]”, “1-(4-Nitrobenzenesulfonyl)-N-(quinolin-3-yl)pyrrolidine-2-carboxamide [Compound 11x]” is 38-fold lower in IC50: 0.114 ± 3e-05 µM for the first, 0.003 µM for the second.

Going from “3-Methyl-2-[N-(4-nitrobenzenesulfonyl)-1-phenylformamido]-N-(quinolin-3-yl)butanamide [Compound 11v]” to “1-(Benzenesulfonyl)-4-hydroxy-N-(quinolin-3-yl)pyrrolidine-2-carboxamide [Compound 11o]”, the IC50 rises from 0.001 µM to 0.003 µM (3-fold).

“2-[N-(benzenesulfonyl)-1-phenylformamido]-3-methyl-N-(quinolin-3-yl)pentanamide [Compound 11m]” and “4-Methyl-2-[N-(4-nitrobenzenesulfonyl)-1-phenylformamido]-N-(quinolin-3-yl)pentanamide [Compound 11t]” are within 1.5-fold of each other in IC50: 0.125 ± 9e-05 µM for the first, 0.114 ± 9e-05 µM for the second.

Compared with “4-Hydroxy-1-(4-methylbenzenesulfonyl)-N-(quinolin-3-yl)pyrrolidine-2-carboxamide [Compound 11g]”, “2-[N-(benzenesulfonyl)-1-phenylformamido]-4-methyl-N-(quinolin-3-yl)pentanamide [Compound 11l]” is 62-fold higher in IC50: 0.002 µM for the first, 0.125 ± 0.0001 µM for the second. The first is the more potent here.

Compared with “2-[N-(benzenesulfonyl)-1-phenylformamido]-N-(quinolin-3-yl)acetamide [Compound 11i]”, “3-Methyl-2-[N-(4-methylbenzenesulfonyl)-1-phenylformamido]-N-(quinolin-3-yl)butanamide [Compound 11f]” is 47-fold lower in IC50: 0.14 ± 3e-05 µM for the first, 0.003 µM for the second. The second is the more potent here.

Going from “2-[N-(benzenesulfonyl)-1-phenylformamido]-3-methyl-N-(quinolin-3-yl)butanamide [Compound 11n]” to “2-[N-(4-nitrobenzenesulfonyl)-1-phenylformamido]-3-phenyl-N-(quinolin-3-yl)propanamide [Compound 11r]”, the IC50 rises from 0.001 µM to 0.108 ± 9e-05 µM (110-fold). The first is the more potent here.

“2-[N-(4-methylbenzenesulfonyl)-1-phenylformamido]-N-(quinolin-3-yl)acetamide [Compound 11a]” and “4-Methyl-2-[N-(4-methylbenzenesulfonyl)-1-phenylformamido]-N-(quinolin-3-yl)pentanamide [Compound 11d]” are within 1.5-fold of each other in IC50: 0.136 ± 3e-05 µM for the first, 0.121 ± 5e-05 µM for the second.

“2-[N-(4-nitrobenzenesulfonyl)-1-phenylformamido]-N-(quinolin-3-yl)acetamide [Compound 11q]” and “2-[N-(4-methylbenzenesulfonyl)-1-phenylformamido]-3-phenyl-N-(quinolin-3-yl)propanamide [Compound 11b]” are within 1.5-fold of each other in IC50: 0.128 ± 9e-05 µM for the first, 0.114 ± 5e-05 µM for the second.

Compared with “1-(Benzenesulfonyl)-N-(quinolin-3-yl)pyrrolidine-2-carboxamide [Compound 11p]”, “2-[N-(benzenesulfonyl)-1-phenylformamido]-3-phenyl-N-(quinolin-3-yl)propanamide [Compound 11j]” is 29-fold higher in IC50: 0.004 µM for the first, 0.116 ± 4e-05 µM for the second. The first is the more potent here.

Compound “4-Hydroxy-1-(4-nitrobenzenesulfonyl)-N-(quinolin-3-yl)pyrrolidine-2-carboxamide [Compound 11w]” has an IC50 of 0.002 µM.

In the case of “1-(4-Methylbenzenesulfonyl)-N-(quinolin-3-yl)pyrrolidine-2-carboxamide [Compound 11h]”, the IC50 is reported as 0.005 µM and 0.006 µM.

test system: not listed separately; assay: Determination of LD50 in mice; details: mouse, in vivo, ip; male mice, intraperitoneal, observed 72 h
Experimental: Male mice were divided into various groups and test compounds were administered in various doses intraperitoneally. […] All behavioral changes and deaths during the observation periods were recorded. The percentage of death at each dose level was then calculated, converted to probits and the LD50 (μM/kg) values were calculated. To observe the health status of the mice, they were monitored 4 times a day. […] For the purpose of ameliorating the suffering of the dying mice, CO2 euthanasia was applied. All the dead mice were disposed in bio-safety containers in accordance with local standard protocols. The mortality rate in each group was calculated according to the formula: Mortalityrate(%)=(thenumberofdeadmice/thenumberofmiceinthegroup)×100.

Compound `Nc1nc(N)nc(Nc2ccc([As]3SCC(CO)S3)cc2)n1` (stereo not shown) [melarsoprol] has an LD50 at 72 h of 7.21 ± 0.28 µmol/kg.

test system: not given; assay: not given; details: not given

First: O=C(Nc1cnc2ccccc2c1)C(Cc1cc2ccccc2[nH]1)N(C(=O)c1ccccc1)S(=O)(=O)c1ccccc1 (stereo not shown) [Compound 11k, 2-[N-(benzenesulfonyl)-1-phenylformamido]-3-(1H-indol-2-yl)-N-(quinolin-3-yl)propanamide]
Second: Cc1ccc(S(=O)(=O)N(C(=O)c2ccccc2)C(Cc2cc3ccccc3[nH]2)C(=O)Nc2cnc3ccccc3c2)cc1 (stereo not shown) [Compound 11c, 3-(1H-indol-2-yl)-2-[N-(4-methylbenzenesulfonyl)-1-phenylformamido]-N-(quinolin-3-yl)propanamide]
The melting point of the first is lower: 73.5 to 73.8 °C for the first, 88.1 to 88.8 °C for the second.

test system: T. b. rhodesiense; assay: not given; details: cited from earlier work

In the case of `NCCCC(N)(C(=O)O)C(F)F` (stereo not shown) [Eflornithine], the “effectiveness against T. b. rhodesiense” value is given as “ineffective”.

test system: people; assay: not given; details: cited from earlier work

In the case of `Nc1nc(N)nc(Nc2ccc([As]3SCC(CO)S3)cc2)n1` (stereo not shown) [melarsoprol], the “people who die from adverse effects related to treatment” value is given as 1–5%.
